Several values for one entry are separate records, joined by “and”; a condition that tells them apart may be missing. Identical values can stand only once.
Key:
[1] = target: T1, human GPR119 (Homo sapiens, UniProt Q8TDV5); experiment: cAMP HTRF functional assay (hGPR119 HEK-CRE beta-lactamase cells); format: cell-based; parameters: host or cells: HEK293-CRE beta-lactamase; details: for Emax: read-out: Intrinsic Activity (Human cAMP)
T1 sequence (Q8TDV5 1-335): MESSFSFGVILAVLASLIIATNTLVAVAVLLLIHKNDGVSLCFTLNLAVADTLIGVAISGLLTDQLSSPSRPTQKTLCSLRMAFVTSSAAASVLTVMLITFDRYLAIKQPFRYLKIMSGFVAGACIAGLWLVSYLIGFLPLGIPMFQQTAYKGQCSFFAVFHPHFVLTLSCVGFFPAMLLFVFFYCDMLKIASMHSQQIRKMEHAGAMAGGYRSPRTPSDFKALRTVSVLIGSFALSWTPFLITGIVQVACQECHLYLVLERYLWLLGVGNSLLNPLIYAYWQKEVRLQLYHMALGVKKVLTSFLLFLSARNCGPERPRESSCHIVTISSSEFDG
Procedure: GPR119 agonist activity was also determined with a cell-based assay utilizing an HTRF (Homogeneous Time-Resolved Fluorescence) cAMP detection kit (cAMP dynamic 2 Assay Kit; Cis Bio cat #62AM4PEC) that measures cAMP levels in the cell. The method is a competitive immunoassay between native cAMP produced by the cells and the cAMP labeled with the dye d2. The tracer binding is visualized by a Mab anti-cAMP labeled with Cryptate. The specific signal (i.e. energy transfer) is inversely proportional to the concentration of cAMP in either standard or sample.
Specifically, hGPR119 HEK-CRE beta-lactamase cells (Invitrogen 2.5×10^7/mL; the same cell line used in the beta-lactamase assay described above) are removed from cryopreservation and diluted in growth medium (Dulbecco's modified Eagle medium high glucose (DMEM; Gibco Cat # 11995-065), 1% charcoal dextran treated fetal bovine serum (CD serum; HyClone Cat # SH30068.03), 1×MEM Nonessential amino acids (Gibco Cat # 15630-080) and 25 mM HEPES pH 7.0 (Gibco Cat # 15630-080)). The cell concentration was adjusted to 1.5×10^5 cells/mL and 30 mLs of this suspension was added to a T-175 flask and incubated at 37 degrees Celsius in a humidified environment in 5% carbon dioxide. After 16 hours (overnight), the cells were removed from the T-175 flask (by rapping the side of the flask), centrifuged at 800×g and then re-suspended in assay medium (1×HBSS+CaCl2+MgCl2 (Gibco Cat # 14025-092) and 25 mM HEPES pH 7.0 (Gibco Cat # 15630-080)). The cell concentration was adjusted to 6.25×10^5 cells/mL with assay medium and 8 μl of this cell suspension (5000 cells) was added to each well of a white Greiner 384-well, low-volume assay plate (VWR cat #82051-458).
Varying concentrations of each compound to be tested were diluted in assay buffer containing 3-isobutyl-1-methylxanthin (IBMX; Sigma cat #15879) and added to the assay plate wells in a volume of 2 microL (final IBMX concentration was 400 microM and final DMSO concentration was 0.58%). Following 30 minutes incubation at room temperature, 5 microL of labeled d2 cAMP and 5 microL of anti-cAMP antibody (both diluted 1:20 in cell lysis buffer; as described in the manufacturers assay protocol) were added to each well of the assay plate. The plates were then incubated at room temperature and after 60 minutes, changes in the HTRF signal were read with an Envision 2104 multilabel plate reader using excitation of 330 nm and emissions of 615 and 665 nm. Raw data were converted to nM cAMP by interpolation from a cAMP standard curve (as described in the manufacturer's assay protocol) and EC50 determinations were made from an agonist-response curves analyzed with a curve fitting program using a 4-parameter logistic dose response equation.

[2] = target: T1, human GPR119; experiment: GPR119 radioligand binding assay ([3H]-Compound A or B, membranes of HEK 293FT cells expressing hGPR119); parameters: host or cells: HEK293-CRE beta-lactamase; details: calculated from IC50 with Cheng-Prusoff; each line a separate determination
Procedure: HEK 293FT cells (Invitrogen, Carlsbad, Calif.) were grown in a shake flask in 293Freestyle medium (Invitrogen) supplemented with 50 microg/mL neomycin and 10 mM HEPES (37C, 8% carbon dioxide, shaking). The cells were centrifuged gently (approximately 500×g, 10 minutes) and the pellet resuspended in a mixture of Dulbecco's PBS (minus Mg++/−Ca++) supplemented with 18% fetal bovine serum (Sigma Aldrich) and P1 virus such that the multiplicity of infection (MOI) was 10 and the final cell density was 1.3×10^6/mL (total volume 2.5 liters). The cells were transferred to a 5 liter Wave Bioreactor Wavebag (Wave Technologies, Mass.) and incubated for 4 hours at 27 degrees Celsius (17 rocks/min, 7 degrees platform angle); at the end of the incubation period, an equal volume (2.5 liters) of 293Freestyle medium supplemented with 30 mM sodium butyrate (Sigma Aldrich) was added (final concentration=15 mM), and the cells were grown for 20 hours (37 degrees Celsius, 8% CO2 [0.2 liters/min}, 25 rocks/minute, 7 degrees platform angle). Cells were harvested via centrifugation (3,000×g, 10 minutes), washed once on DPBS (minus Ca++/Mg++), resuspended in 0.25M sucrose, 25 mM HEPES, 0.5 mM EDTA, pH 7.4 and frozen at −80 degrees Celsius.
The frozen cells were thawed on ice and centrifuged at 700×g (1400 rpm) for 10 minutes at 4 degrees Celsius. The cell pellet was resuspended in 20 mL phosphate-buffered saline, and centrifuged at 1400 rpm for 10 minutes. The cell pellet was then resuspended in homogenization buffer (10 mM HEPES (Gibco #15630), pH 7.5, 1 mM EDTA (BioSolutions, #BIO260-15), 1 mM EGTA (Sigma, #E-4378), 0.01 mg/mL benzamidine (Sigma #B 6506), 0.01 mg/mL bacitracin (Sigma #B 0125), 0.005 mg/mL leupeptin (Sigma #L 8511), 0.005 mg/mL aprotinin (Sigma #A 1153)) and incubated on ice for 10 minutes. Cells were then lysed with 15 gentle strokes of a tight-fitting glass Dounce homogenizer. The homogenate was centrifuged at 1000×g (2200 rpm) for 10 minutes at 4 degrees Celsius. The supernatant was transferred into fresh centrifuge tubes on ice. The cell pellet was resuspended in homogenization buffer, and centrifuged again at 1000×g (2200 rpm) for 10 minutes at 4 degrees Celsius after which the supernatant was removed and the pellet resuspended in homogenization buffer. This process was repeated a third time, after which the supernatants were combined, Benzonase (Novagen # 71206) and MgCl2 (Fluka #63020) were added to final concentrations of 1 U/mL and 6 mM, respectively, and incubated on ice for one hour. The solution was then centrifuged at 25,000×g (15000 rpm) for 20 minutes at 4 degrees Celsius, the supernatant was discarded, and the pellet was resuspended in fresh homogenization buffer (minus Benzonase and MgCl2). After repeating the 25,000×g centrifugation step, the final membrane pellet was resuspended in homogenization buffer and frozen at −80 degrees Celsius. The protein concentration was determined using the Pierce BCA protein assay kit (Pierce reagents A #23223 and B #23224).
Test compounds were serially diluted in 100% DMSO (J. T. Baker #922401). 2 microL of each dilution was added to appropriate wells of a 96-well plate (each concentration in triplicate). Unlabeled Compound A (or Compound B), at a final concentration of 10 microM, was used to determine non-specific binding. [^3H]-Compound A (or [^3H]-Compound B) was diluted in binding buffer (50 mM Tris-HCl, pH 7.5, (Sigma #T7443), 10 mM MgCl2 (Fluka 63020), 1 mM EDTA (BioSolutions #BIO260-15), 0.15% bovine serum albumin (Sigma #A7511), 0.01 mg/mL benzamidine (Sigma #B 6506), 0.01 mg/mL bacitracin (Sigma #B 0125), 0.005 mg/mL leupeptin (Sigma #L 8511), 0.005 mg/mL aprotinin (Sigma #A 1153)) to a concentration of 60 nM, and 100 microL added to all wells of 96-well plate (Nalge Nunc # 267245). […]

[3] = target: T1, human GPR119; experiment: β-Arrestin PathHunter assay (U2OS hGPR119 β-arrestin cells); format: cell-based
Procedure: GPR119 agonist activity was also determined with a cell-based assay utilizing DiscoverX PathHunter β-arrestin cell assay technology and their U2OS hGPR119 β-arrestin cell line (DiscoverX Cat # 93-0356C3). In this assay, agonist activation is determined by measuring agonist-induced interaction of β-arrestin with activated GPR119. A small, 42 amino acid enzyme fragment, called ProLink was appended to the C-terminus of GPR119. Arrestin was fused to the larger enzyme fragment, termed EA (Enzyme Acceptor). Activation of GPR119 stimulates binding of arrestin and forces the complementation of the two enzyme fragments, resulting in formation of a functional β-galactosidase enzyme capable of hydrolyzing substrate and generating a chemiluminescent signal.
Specifically, U2OS hGPR119 β-arrestin cells (DiscoverX 1×10^7/mL) are removed from cryopreservation and diluted in growth medium (Minimum essential medium (MEM; Gibco Cat # 11095-080), 10% heat inactivated fetal bovine serum (HIFBS; Sigma Cat # F4135-100), […] sodium pyruvate (Sigma Cat # S8636), 500 microg/mL G418 (Sigma Cat # G8168) and 250 microg/mL Hygromycin B (Invitrogen Cat # 10687-010). The cell concentration was adjusted to 1.66×10^5 cells/mL and 30 mLs of this suspension was added to a T-175 flask and incubated at 37 degrees Celsius in a humidified environment in 5% carbon dioxide. After 24 hours, the cells were removed from the T-175 flask with enzyme-free cell dissociation buffer (Gibco cat #13151-014), centrifuged at 800×g and then re-suspended in plating medium (Opti-MEM I (Invitrogen/BRL Cat # 31985-070) and 2% charcoal dextran treated fetal bovine serum (CD serum; HyClone Cat # SH30068.03).
The cell concentration was adjusted to 2.5×10^5 cells/mL with plating medium and 20 microliters of this cell suspension (5000 cells) was added to each well of a white Greiner 384-well low volume assay plate (VWR cat #82051-458) and the plates were incubated at 37 degrees Celsius in a humidified environment in 5% carbon dioxide.
After 16 hours (overnight) the assay plates were removed from the incubator and varying concentrations of each compound to be tested (diluted in assay buffer (1×HBSS+CaCl2+MgCl2 (Gibco Cat # 14025-092), 20 mM HEPES pH 7.0 (Gibco Cat # 15630-080) and 0.1% BSA (Sigma Cat # A9576)) were added to the assay plate wells in a volume of 5 microliters (final DMSO concentration was 0.5%). After a 90 minute incubation at 37 degrees Celsius in a humidified environment in 5% carbon dioxide, 12 microliters of Galacton Star β-galactosidase substrate (PathHunter Detection Kit (DiscoveRx Cat # 93-0001); prepared as described in the manufacturers assay protocol) was added to each well of the assay plate. The plates were incubated at room temperature and after 60 minutes, changes in the luminescence were read with an Envision 2104 multilabel plate reader at 0.1 seconds per well. EC50 determinations were made from an agonist-response curves analyzed with a curve fitting program using a 4-parameter logistic dose response equation.

[4] = marked **: curve was extrapolated to 100%
[5] = percent of maximal activity relative to standard GPR119 agonist at 10 micromolar
[6] = HTRF cAMP, 30 min, 400 microM IBMX, each line a separate determination

`Cc1c(O[C@@H]2CCN(C(=O)OC3(C)CC3)C[C@@H]2F)ncnc1N1CCc2nnccc21` [Example 31, 1-Methylcyclopropyl (3S,4R)-4-{[6-(6,7-dihydro-5H-pyrrolo[3,2-c]pyridazin-5-yl)-5-methylpyrimidin-4-yl]oxy}-3-fluoropiperidine-1-carboxylate] was tested, and the EC50 ([1]; curve was extrapolated to 100% to calculate an EC50) was 4820 nM and 5890 nM and 6100 nM, the “Intrinsic Activity (Human cAMP)” value [1, 4] was 100** % and the Emax [1, 4] was 100%. For the same compound, the Ki [2] was 618 nM.
In the case of `Cc1c(O[C@@H]2CCN(C(=O)OC3(C)CC3)C[C@@H]2F)ncnc1N1CCc2ncccc21` [Example 18, 1-Methylcyclopropyl (3S,4R)-4-{[6-(2,3-dihydro-1H-pyrrolo[3,2-b]pyridin-1-yl)-5-methylpyrimidin-4-yl]oxy}-3-fluoropiperidine-1-carboxylate], the EC50 ([3]; U2OS hGPR119 β-arrestin cells, 90 min, each line a separate determination, read-out: Human B-arrestin Functional EC50) is reported as 2.57 nM and 19 nM and 4.94 nM and 20.6 nM, the Emax ([3]; U2OS, percent of maximal activity relative to standard GPR119 agonist at 10 micromolar, read-out: Intrinsic Activity (Human B-arrestin)) is reported as 75.8% and the “Intrinsic Activity (Human B-arrestin)” value [3, 5] is reported as 73.7% and 81% and 78.9%. For the same compound, the EC50 [1, 6] was 18.8 nM and 18.4 nM and 15.9 nM and 12.7 nM and 14.6 nM and the “Intrinsic Activity (Human cAMP)” value [1, 5] was 71.2% and 49.2% and 54.5% and 61.7% and 57.7%.
In the case of `Cc1c(OC2CCN(C(=O)OC3(C)CC3)CC2F)ncnc1N1CCc2cc(C(N)=O)ccc21` (racemic) [Example 20, 1-Methylcyclopropyl 4-{[6-(5-carbamoyl-2,3-dihydro-1H-indol-1-yl)-5-methylpyrimidin-4-yl]oxy}-3-fluoropiperidine-1-carboxylate (racemic)], the EC50 [1, 6] is reported as 493 nM and 765 nM and 1050 nM, the “Intrinsic Activity (Human cAMP)” value [1, 5] is reported as 91.6% and 98% and the Emax [1, 5] is reported as 81.5%. For the same compound, the Ki [2] was 1710 nM.
`Cc1c(O[C@H]2[C@@H]3COC[C@H]2CN(C(=O)OC(C)(C)C)C3)ncnc1N1CCc2ncccc21` [Example 21, tert-Butyl (9-anti)-9-{[6-(2,3-dihydro-1H-pyrrolo[3,2-b]pyridin-1-yl)-5-methylpyrimidin-4-yl]oxy}-3-oxa-7-azabicyclo[3.3]nonane-7-carboxylate] was tested, and the EC50 [1, 6] was 107 nM and 87.8 nM, the “Intrinsic Activity (Human cAMP)” value [1, 5] was 45.2% and the Emax [1, 5] was 49.8%. For the same compound, the Ki [2] was 26 nM and 25.6 nM.

From patent US20100285145A1, “GPR 119 MODULATORS” (PFIZER INC, priority 2009, published 2010)
